Data published in US20240425500A1 (priority 2021, published 2024).

Columns and labels:
Plasmopara viticola = test: whole plant or invertebrate; assay type: in vivo; settings: foliar, read-out: control of Plasmopara viticola compared to untreated control
Phytophthora infestans = test: whole plant or invertebrate; assay type: in vivo; settings: in Solanum lycopersicum, foliar, read-out: control of Phytophthora infestans compared to untreated control
Pythium ultimum = Pythium ultimum / liquid culture (seedling damping off); assay type: cell-based; settings: Globisporangium ultimum, liquid culture in PDB, 24 °C, 2-3 days after application, read-out: control of Pythium ultimum (inhibition of growth, photometric) compared to untreated control
In short: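 Mycelia fragments and oospores from fresh liquid culture mixed into potato dextrose broth and added to compound in DMSO. Incubated at 24° C.; growth inhibition read photometrically 2–3 days after application.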

CCN(C(=O)c1ccc2ncc(-c3ccc(NC(=O)OC)nc3)n2c1)c1ccc(F)c(F)c1 [Compound 105, methyl N-[5-[6-[(3,4-difluorophenyl)-ethyl-carbamoyl]imidazo[1,2-a]pyridin-3-yl]-2-pyridyl]carbamate]
≥ 80%: pest or weed control at 200 ppm (Plasmopara viticola) | pest or weed control at 200 ppm (Phytophthora infestans) | inhibition at 20 ppm (Pythium ultimum)

COC(=O)Nc1ccc(-c2cnc3ccc(C(=O)N(C)c4ccc(C#N)c(OC)c4)cn23)cn1 [Compound 51, methyl N-[5-[6-[(4-cyano-3-methoxy-phenyl)-methyl-carbamoyl]imidazo[1,2-a]pyridin-3-yl]-2-pyridyl]carbamate]
≥ 80%: pest or weed control at 200 ppm (Plasmopara viticola) | pest or weed control at 200 ppm (Phytophthora infestans) | inhibition at 20 ppm (Pythium ultimum)

COC(=O)Nc1ccc(-c2cnc3ccc(C(=O)N(c4ccc(F)cc4)C4CC4)cn23)cn1 [Compound 110, methyl N-[5-[6-[cyclopropyl-(4-fluorophenyl)carbamoyl]imidazo [1,2-a]pyridin-3-yl]-2-pyridyl]carbamate]
≥ 80%: pest or weed control at 200 ppm (Plasmopara viticola) | pest or weed control at 200 ppm (Phytophthora infestans) | inhibition at 20 ppm (Pythium ultimum)

COC(=O)Nc1ccc(-c2cnc3c(Cl)cc(C(=O)N(C)c4ccc(F)cc4)cn23)cn1 [Compound 85, methyl N-[5-[8-chloro-6-[(4-fluorophenyl)-methyl-carbamoyl]imidazo[1,2-a]pyridin-3-yl]-2-pyridyl]carbamate]
≥ 80%: pest or weed control at 200 ppm (Plasmopara viticola) | pest or weed control at 200 ppm (Phytophthora infestans) | inhibition at 20 ppm (Pythium ultimum)

COC(=O)Nc1ccc(-c2cnc3ccc(C(=O)N(C)c4ccc(F)cc4)cn23)cc1 [Compound 11, methyl N-[4-[6-[(4-fluorophenyl)-methyl-carbamoyl]imidazo[1,2-a]pyridin-3-yl]phenyl]carbamate]
≥ 80%: pest or weed control at 200 ppm (Plasmopara viticola) | pest or weed control at 200 ppm (Phytophthora infestans) | inhibition at 20 ppm (Pythium ultimum)

COC(=O)Nc1ccc(-c2cnc3ccc(C(=O)N(CC#N)c4ccc(Cl)cc4)cn23)cc1 [Compound 31, methyl N-[4-[6-[(4-chlorophenyl)-(cyanomethyl)carbamoyl]imidazo[1,2-a]pyridin-3-yl]phenyl]carbamate]
≥ 80%: pest or weed control at 200 ppm (Plasmopara viticola) | pest or weed control at 200 ppm (Phytophthora infestans) | inhibition at 20 ppm (Pythium ultimum)

COC(=O)Nc1ccc(-c2cnc3ccc(C(=O)N(CCC#N)c4cccc(OC)c4)cn23)cn1 [Compound 149, methyl N-[5-[6-[2-cyanoethyl-(3-methoxyphenyl)carbamoyl]imidazo[1,2-a]pyridin-3-yl]-2-pyridyl]carbamate]
≥ 80%: pest or weed control at 200 ppm (Plasmopara viticola) | pest or weed control at 200 ppm (Phytophthora infestans) | inhibition at 20 ppm (Pythium ultimum)

COCCN(C(=O)c1ccc2ncc(-c3ccc(NC(=O)OC)nc3)n2c1)c1ccc(F)cc1 [Compound 76, methyl N-[5-[6-[(4-fluorophenyl)-(2-methoxyethyl)carbamoyl]imidazo[1,2-a]pyridin-3-yl]-2-pyridyl]carbamate]
≥ 80%: pest or weed control at 200 ppm (Plasmopara viticola) | pest or weed control at 200 ppm (Phytophthora infestans) | inhibition at 20 ppm (Pythium ultimum)

COC(=O)Nc1ccc(-c2cnc3c(C)cc(C(=O)N(C)c4ccc(F)c(OC)c4)cn23)cn1 [Compound 95, methyl N-[5-[6-[(4-fluoro-3-methoxy-phenyl)-methyl-carbamoyl]-8-methyl-imidazo[1,2-a]pyridin-3-yl]-2-pyridyl]carbamate]
≥ 80%: pest or weed control at 200 ppm (Plasmopara viticola) | pest or weed control at 200 ppm (Phytophthora infestans) | inhibition at 20 ppm (Pythium ultimum)

COCCN(C(=O)c1ccc2ncc(-c3ccc(NC(=O)OC)nc3)n2c1)c1ccc(F)c(OC)c1 [Compound 173, methyl N-[5-[6-[(4-fluoro-3-methoxy-phenyl)-(2-methoxyethyl)carbamoyl]imidazo[1,2-a]pyridin-3-yl]-2-pyridyl]carbamate]
≥ 80%: pest or weed control at 200 ppm (Plasmopara viticola) | pest or weed control at 200 ppm (Phytophthora infestans) | inhibition at 20 ppm (Pythium ultimum)

COC(=O)Nc1ccc(-c2cnc3c(C)cc(C(=O)N(C)c4ccc(F)c(Cl)c4)cn23)cn1 [Compound 171, methyl N-[5-[6-[(3-chloro-4-fluoro-phenyl)-methyl-carbamoyl]-8-methyl-imidazo[1,2-a]pyridin-3-yl]-2-pyridyl]carbamate]
≥ 80%: pest or weed control at 200 ppm (Plasmopara viticola) | pest or weed control at 200 ppm (Phytophthora infestans) | inhibition at 20 ppm (Pythium ultimum)

COC(=O)Nc1ccc(-c2cnc3ccc(C(=O)N(C)c4cccc(OC)c4)cn23)cn1 [Compound 63, methyl N-[5-[6-[(3-methoxyphenyl)-methyl-carbamoyl]imidazo[1,2-a]pyridin-3-yl]-2-pyridyl]carbamate]
≥ 80%: pest or weed control at 200 ppm (Plasmopara viticola) | pest or weed control at 200 ppm (Phytophthora infestans) | inhibition at 20 ppm (Pythium ultimum)

COC(=O)Nc1ccc(-c2cnc3ccc(C(=O)N(C)c4cccc(C(F)F)c4)cn23)cn1 [Compound 57, methyl N-[5-[6-[[3-(difluoromethyl)phenyl]-methyl-carbamoyl]imidazo[1,2-a]pyridin-3-yl]-2-pyridyl]carbamate]
≥ 80%: pest or weed control at 200 ppm (Plasmopara viticola) | pest or weed control at 200 ppm (Phytophthora infestans) | inhibition at 20 ppm (Pythium ultimum)

COC(=O)Nc1ccc(-c2cnc3ccc(C(=O)N(C)c4ccc(C#N)cc4)cn23)cn1 [Compound 15, methyl N-[5-[6-[(4-cyanophenyl)-methyl-carbamoyl]imidazo[1,2-a]pyridin-3-yl]-2-pyridyl]carbamate]
≥ 80%: pest or weed control at 200 ppm (Plasmopara viticola) | pest or weed control at 200 ppm (Phytophthora infestans) | inhibition at 20 ppm (Pythium ultimum)

COC(=O)Nc1ccc(-c2cnc3c(OC)cc(C(=O)N(C)c4ccc(Cl)cc4)cn23)cc1 [Compound 37, methyl N-[4-[6-[(4-chlorophenyl)-methyl-carbamoyl]-8-methoxy-imidazo[1,2-a]pyridin-3-yl]phenyl]carbamate]
≥ 80%: pest or weed control at 200 ppm (Plasmopara viticola) | pest or weed control at 200 ppm (Phytophthora infestans) | inhibition at 20 ppm (Pythium ultimum)
